Assay results from patent US12528761B2, “Thyromimetics” (Autobahn Therapeutics, Inc., priority 2020, dated 2026).
pEC50: −log10 of the molar value.

What was measured:
[1] = biological target: T1, recombinant human FAAH (rhFAAH) (Homo sapiens, UniProt O00519); experiment: FAAH substrate evaluation (formation of acid metabolite, LC-MS/MS); type: biochemical; set-up: key: A: ke is equal to or less than 1.0; B: ke is greater than 1.0 and less than or equal to 2.5; C: ke is greater than 2.5; NC: no conversion; conditions: 0.5 ng/μL rhFAAH, 1 μM test compound, pH 8.0, room temperature, 0-60 minutes
T1 construct: purchased Cayman Chemical (Ann Arbor, MI, USA)
T1 sequence (O00519 1-579): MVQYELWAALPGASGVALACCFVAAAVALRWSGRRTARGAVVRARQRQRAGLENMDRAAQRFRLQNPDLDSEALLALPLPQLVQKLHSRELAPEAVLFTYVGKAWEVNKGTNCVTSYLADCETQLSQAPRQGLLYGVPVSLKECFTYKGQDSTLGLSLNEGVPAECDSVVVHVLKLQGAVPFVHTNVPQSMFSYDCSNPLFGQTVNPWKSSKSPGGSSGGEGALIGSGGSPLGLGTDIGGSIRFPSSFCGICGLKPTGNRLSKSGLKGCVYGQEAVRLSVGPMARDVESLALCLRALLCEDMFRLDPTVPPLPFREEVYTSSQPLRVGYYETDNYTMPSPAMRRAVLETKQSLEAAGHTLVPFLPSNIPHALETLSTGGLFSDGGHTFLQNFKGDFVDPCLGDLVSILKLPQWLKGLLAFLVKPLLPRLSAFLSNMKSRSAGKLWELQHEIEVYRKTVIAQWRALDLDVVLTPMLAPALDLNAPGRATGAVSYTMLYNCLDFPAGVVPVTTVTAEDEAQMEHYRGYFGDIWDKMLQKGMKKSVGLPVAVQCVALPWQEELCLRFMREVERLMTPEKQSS
Description: Purified recombinant human FAAH (rhFAAH) was purchased from Cayman Chemical (Ann Arbor, MI, USA). The total volume for each incubation was 400 μL containing a final 0.5 ng/μL rhFAAH, 1 μM test compound, 1.25% ethanol or 1 μM PF-3845 (FAAH inhibitor), and 0.1% bovine serum albumin in Tris-EDTA buffer at pH 8.0). The positive control was LL-341001. The incubation was conducted at the room temperature. At 0, 5, 15, 30 and 60 minutes, an aliquot of 30 μL reaction mixtures was removed and mixed with 300 μL acetonitrile containing 5 ng/mL terfenadine and 10 ng/mL tolbutamide as internal standards to quench the reaction. The resulting mixture was centrifuged at 4000 rpm, 4° C. for 15 minutes, and 100 μL supernatant was ready for LC-MS/MS analysis to measure the formation of acid metabolite.
Acquity Ultra Performance LC system from Waters was used for sample analysis. The chromatography was performed on a reverse phase Kinetex 2.6 μm C18 column, 2.1×30 mm, 100 Å. The mobile phase A comprised of 0.1% formic acid in water and mobile phase B comprised of 0.1% formic acid in acetonitrile with a 2-min run time at the flow rate of 0.8 mL/min for the acid metabolite from positive control or a 1.5 min run time at the flow rate of 0.9 mL/min for the acid metabolite of test compounds. The mass spectrometer (API-5500 and API Q Trap 4000 Applied Biosystems/MDS SCIEX Instruments, Framingham, MA, USA) was operated under ESI positive or negative ion MRM mode.
The formation of acid metabolite was monitored and quantified using one calibration point of 1 μM. The observed rate constant (ke) for the acid metabolite formation was calculated by plotting the metabolite concentration versus time of incubation with the slope being ke and is shown in Table 4.

TRα = biological target: T2, TRα (Homo sapiens, UniProt P10827); experiment: TR reporter-gene assay (Gal4 DBD hybrid, luciferase), TRα; type: cell-based; conditions: HEK293-derived reporter cells, 24 hr treatment; read-out: TRα EC50
T2 construct: expressed in transfected cells; host or cells: HEK293
T2 sequence (P10827 1-410 isoform P10827-2): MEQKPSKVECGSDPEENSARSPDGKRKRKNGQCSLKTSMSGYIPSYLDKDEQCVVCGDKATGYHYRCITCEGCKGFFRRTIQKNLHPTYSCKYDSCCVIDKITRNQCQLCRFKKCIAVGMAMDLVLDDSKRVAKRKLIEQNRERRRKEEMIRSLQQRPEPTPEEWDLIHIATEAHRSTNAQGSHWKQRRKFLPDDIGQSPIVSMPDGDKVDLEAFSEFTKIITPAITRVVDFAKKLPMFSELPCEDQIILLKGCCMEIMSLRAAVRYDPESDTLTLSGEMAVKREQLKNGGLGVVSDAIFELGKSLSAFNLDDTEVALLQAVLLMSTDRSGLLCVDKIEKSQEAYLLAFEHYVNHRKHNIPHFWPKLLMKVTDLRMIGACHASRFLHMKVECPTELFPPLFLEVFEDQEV
Procedure, shortened: (§1)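 HEK293 reporter cells expressing Gal4-DBD/TR ligand-binding hybrids driving firefly luciferase from a Gal4 UAS; cells pre-incubated 6 h, then treated 24 h at 37 °C in medium with 10% charcoal-stripped FBS (final DMSO 0.1–0.4%), in duplicate. Read-out was luminescence (RLU).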

TRβ = biological target: T3, TRβ (Homo sapiens, UniProt P10828); experiment: TR reporter-gene assay (Gal4 DBD hybrid, luciferase), TRβ; type: cell-based; conditions: for pEC50: HEK293-derived reporter cells, 24 hr treatment, read-out: TRβ EC50; for T3-SI (selectivity index, EC50 (TRα)/EC50 (TRβ)): class symbols
T3 construct: expressed in transfected cells; host or cells: HEK293
T3 sequence (P10828 217-461 limits assumed): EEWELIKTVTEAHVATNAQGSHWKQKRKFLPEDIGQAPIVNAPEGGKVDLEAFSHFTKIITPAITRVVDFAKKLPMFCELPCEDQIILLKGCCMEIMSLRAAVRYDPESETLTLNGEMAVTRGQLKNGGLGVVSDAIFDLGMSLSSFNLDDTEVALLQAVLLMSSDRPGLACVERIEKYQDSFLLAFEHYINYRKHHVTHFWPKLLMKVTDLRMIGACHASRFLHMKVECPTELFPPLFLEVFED
Procedure, shortened: as §1

Row | Compound | ke, observed rate constant for the acid metabolite formation [1] | pEC50 (TRα) | pEC50 (TRβ) | T3-SI (selectivity index, EC50 (TRα)/EC50 (TRβ)) (TRβ)
1 | CNC(=O)CSc1cc(Cl)c(Cc2ccc(O)c(C(C)C)c2)c(C)c1F [Compound 220, 2-((5-chloro-2-fluoro-4-(4-hydroxy-3-isopropylbenzyl)-3-methylphenyl)thio)-N-methylacetamide] | NC | – | – | –
2 | CC(C)c1cc(Cc2c(Cl)cc(OC(F)C(=O)O)cc2Cl)ccc1O (stereo not shown) [Compound 81, 2-(3,5-dichloro-4-(4-hydroxy-3-isopropylbenzyl)phenoxy)-2-fluoroacetic acid] | – | 6.00 to 7.00 | 6.00 to 7.00 | ++ (3× < T3-SI ≤ 30×)
3 | CC(C)c1cc(Cc2c(Cl)cc(CCC(=O)O)c(F)c2Cl)ccc1O [Compound 65, 3-(3,5-dichloro-2-fluoro-4-(4-hydroxy-3-isopropylbenzyl)phenyl)propanoic acid] | – | 7.00 to 8.00 | 7.00 to 8.00 | ++ (3× < T3-SI ≤ 30×)
4 | CC(C)c1c(O)ccc(Cc2c(Cl)cc(CC3NC(=O)NC3=O)cc2Cl)c1F (stereo not shown) [Compound 206, 5-(3,5-dichloro-4-(2-fluoro-4-hydroxy-3-isopropylbenzyl)benzyl)imidazolidine-2,4-dione] | – | < 6.00 | < 6.00 | +++ (T3-SI > 30×)
5 | CC(C)c1c(O)ccc(Cc2c(Cl)cc(CC(N)C(=O)O)cc2Cl)c1F (stereo not shown) [Compound 207, 2-amino-3-(3,5-dichloro-4-(2-fluoro-4-hydroxy-3-isopropylbenzyl)phenyl)propanoic acid] | – | < 6.00 | 6.00 to 7.00 | + (T3-SI ≤ 3×)
6 | CC(c1ccc(F)cc1)c1c(O)ccc(Cc2c(Cl)cc(NCC(=O)O)cc2Cl)c1F (stereo not shown) [Compound 50, (3,5-dichloro-4-(2-fluoro-3-(1-(4-fluorophenyl)ethyl)-4-hydroxybenzyl)phenyl) glycine] | – | 7.00 to 8.00 | > 8.00 | ++ (3× < T3-SI ≤ 30×)
7 | CC(C)c1c(O)ccc(Cc2c(Cl)cc(CC(=O)O)c(F)c2Cl)c1F [Compound 69, 2-(3,5-dichloro-2-fluoro-4-(2-fluoro-4-hydroxy-3-isopropylbenzyl)phenyl)acetic acid] | – | 7.00 to 8.00 | > 8.00 | ++ (3× < T3-SI ≤ 30×)
8 | CC(C)c1c(O)ccc(Cc2c(Cl)cc(C(=O)O)cc2Cl)c1F [Compound 61, 3,5-dichloro-4-(2-fluoro-4-hydroxy-3-isopropylbenzyl)benzoic acid] | – | < 6.00 | < 6.00 | ++ (3× < T3-SI ≤ 30×)
9 | CC(C)c1cc(Cc2c(Cl)cc(SCC(=O)O)c(F)c2Cl)ccc1O [Compound 204, 2-((3,5-dichloro-2-fluoro-4-(4-hydroxy-3-isopropylbenzyl)phenyl)thio)acetic acid] | – | 7.00 to 8.00 | 7.00 to 8.00 | ++ (3× < T3-SI ≤ 30×)
10 | CC(C)c1c(O)ccc(Cc2c(Cl)cc(CCC(=O)O)cc2Cl)c1F [Compound 40, 3-(3,5-dichloro-4-(2-fluoro-4-hydroxy-3-isopropylbenzyl)phenyl)propanoic acid] | – | > 8.00 | > 8.00 | ++ (3× < T3-SI ≤ 30×)
11 | CC(C)c1cc(Cc2c(Cl)cc(CNCC(=O)O)c(F)c2Cl)ccc1O [Compound 152, (3,5-dichloro-2-fluoro-4-(4-hydroxy-3-isopropylbenzyl)benzyl)glycine] | – | 6.00 to 7.00 | 6.00 to 7.00 | ++ (3× < T3-SI ≤ 30×)

More lines, now with the values ahead:

Row | ke, observed rate constant for the acid metabolite formation [1] | pEC50 (TRα) | pEC50 (TRβ) | T3-SI (selectivity index, EC50 (TRα)/EC50 (TRβ)) (TRβ) | Compound
12 | – | 6.00 to 7.00 | 6.00 to 7.00 | ++ (3× < T3-SI ≤ 30×) | Cc1c(F)c(CNCC(=O)O)cc(Cl)c1Cc1ccc(O)c(C(C)C)c1 [Compound 221, (5-chloro-2-fluoro-4-(4-hydroxy-3-isopropylbenzyl)-3-methylbenzyl)glycine]
13 | – | < 6.00 | < 6.00 | ++ (3× < T3-SI ≤ 30×) | Cc1cc([S+]([O-])CC(=O)O)cc(Cl)c1Cc1ccc(O)c(C(C)C)c1 (stereo not shown) [Compound 244, 2-((3-chloro-4-(4-hydroxy-3-isopropylbenzyl)-5-methylphenyl)sulfinyl)acetic acid]
14 | – | 6.00 to 7.00 | 6.00 to 7.00 | ++ (3× < T3-SI ≤ 30×) | Cc1cc(SCC(=O)O)cc(Cl)c1Cc1ccc(O)c(C(C)C)c1 [Compound 123, 2-((3-chloro-4-(4-hydroxy-3-isopropylbenzyl)-5-methylphenyl)thio)acetic acid]
15 | – | < 6.00 | < 6.00 | + (T3-SI ≤ 3×) | CC(C)c1cc(Cc2c(Cl)cc(C[S+]([O-])CC(=O)O)cc2Cl)ccc1O (stereo not shown) [Compound 96, 2-((3,5-dichloro-4-(4-hydroxy-3-isopropylbenzyl)benzyl)sulfinyl)acetic acid]
16 | – | 7.00 to 8.00 | 7.00 to 8.00 | + (T3-SI ≤ 3×) | CC(C)c1cc(Cc2c(Cl)cc(CC(N)C(=O)O)cc2Cl)ccc1O (stereo not shown) [Compound 143, 2-amino-3-(3,5-dichloro-4-(4-hydroxy-3-isopropylbenzyl)phenyl)propanoic acid]
17 | – | 7.00 to 8.00 | 7.00 to 8.00 | ++ (3× < T3-SI ≤ 30×) | CC(C)c1cc(Cc2c(Cl)cc(NCCC(=O)O)cc2Cl)ccc1O [Compound 103, 3-((3,5-dichloro-4-(4-hydroxy-3-isopropylbenzyl)phenyl)amino)propanoic acid]
18 | – | 6.00 to 7.00 | < 6.00 | + (T3-SI ≤ 3×) | Cc1cc(CNCC(=O)O)cc(Cl)c1Cc1ccc(O)c(C(C)C)c1 [Compound 251, (3-chloro-4-(4-hydroxy-3-isopropylbenzyl)-5-methylbenzyl)glycine]
19 | – | 6.00 to 7.00 | 6.00 to 7.00 | ++ (3× < T3-SI ≤ 30×) | CC(C)c1cc(Cc2c(Cl)cc(CC(=O)O)cc2Cl)ccc1O [Compound 6, 2-(3,5-dichloro-4-(4-hydroxy-3-isopropylbenzyl)phenyl)acetic acid]
20 | – | 6.00 to 7.00 | 6.00 to 7.00 | ++ (3× < T3-SI ≤ 30×) | CC(C)c1cc(Cc2c(Cl)cc(SCC(=O)O)cc2Cl)ccc1O [Compound 91, 2-((3,5-dichloro-4-(4-hydroxy-3-isopropylbenzyl)phenyl)thio)acetic acid]
